The text below walks through data of patent US6472391B2, “Nitrogen-containing heterocyclic compounds” (Millennium Pharmaceuticals, Inc., priority 1996, dated 2002).

In the case of `CCc1cccc(NC(=O)N2CCN(c3ncnc4cc(OC)c(OC)cc34)CC2)c1` [Compound 148, 4-(6,7-Dimethoxy-4-quinazolinyl)-N-(3-ethylphenyl)-1-piperazinecarboxamide], the melting point (usually the temperature of the solid-liquid transition) fell in the range of 207 to 208 °C.

With `CCOc1ccc(NC(=O)N2CCN(c3ncnc4cc(OC)c(OC)cc34)CC2)cc1` [Compound 57, 4-(6,7-Dimethoxy-4-quinazolinyl)-N-(4-ethoxyphenyl)-1-piperazinecarboxamide], the melting point fell in the range of 165 to 166 °C.

Consider `Cc1ccc2ncnc(N3CCN(C(=O)Nc4ccc([N+](=O)[O-])cc4)CC3)c2c1` [Compound 293, 4-(6-Methyl-4-quinazolinyl)-N-(4-nitrophenyl)-1-piperazinecarboxamide], for which the melting point was in the range of 126 to 129 °C.

With `COc1cc2ncnc(N3CCN(C(=O)Nc4ccc(C)cc4)CC3)c2cc1OC` [Compound 17, 4-(6,7-Dimethoxy-4-quinazolinyl)-N-(4-tolyl)-1-piperazinecarboxamide], the melting point lay within 225 to 228 °C.

`COc1cc2ncnc(N3CCN(C(=S)Nc4ccc(C#N)cc4)CC3)c2cc1OC` [Compound 85, N-(4-Cyanophenyl)-4-(6,7-dimethoxy-4-quinazolinyl)-1-piperazinethiocarboxamide] gave a melting point of 247 to 252 °C.

Consider `COc1cc2ncnc(N3CCN(C(=O)NCc4cnc(C)cn4)CC3)c2cc1OC` [Compound 278, 4-(6,7-Dimethoxy-4-quinazolinyl)-N-(5-methyl-2-pyrazinylmethyl)-1-piperazinecarboxamide], for which the melting point lay within 202 to 204 °C.

Compound `N#Cc1ccc(NC(=O)N2CCN(c3ncnc4cc5c(cc34)OCO5)CC2)cc1` [Compound 369, N-(4-Cyanophenyl)-4-(6,7-methylenedioxy-4-quinazolinyl)-1-piperazinecarboxamide] came in with a melting point of 220 to 222 °C.

Take `COc1cc2c(N3CCN(C(=S)NCc4cccnc4)CC3)ncnc2cc1OC(C)C` [Compound 342, 4-(7-Isopropoxy-6-methoxy-4-quinazolinyl)-N-(3-picolyl)-1-piperazinethiocarboxamide]: the melting point was in the range of 205 to 206 °C.

Regarding `COc1cc2ncnc(N3CCN(C(=S)NCc4ccccc4)CC3)c2cc1OC` [Compound 125, N-Benzyl-4-(6,7-dimethoxy-4-quinazolinyl)-1-piperazinethiocarboxamide], the melting point was in the range of 187 to 189 °C.

For the compound `COc1cc2ncnc(N3CCN(C(=O)Nc4ccc(C(=O)c5ccccc5)cc4)CC3)c2cc1OC` [Compound 245, N-(4-Benzoylphenyl)-4-(6,7-dimethoxy-4-quinazolinyl)-1-piperazinecarboxamide], the melting point lay within 240 to 241 °C.

As to `O=C(Nc1ccc(Oc2ccccc2)cc1)N1CCN(c2ccnc3cc(Cl)ccc23)CC1` [Compound 115, 4-(7-Chloro-4-quinolyl)-N-(4-phenoxyphenyl)-1-piperazinecarboxamide], the melting point lay within 159 to 161 °C.

Compound `COc1ccc(NC(=S)N2CCN(c3ncnc4cc(OC)c(OC)cc34)CC2)cc1` [Compound 196, 4-(6,7-Dimethoxy-4-quinazolinyl)-N-(4-methoxyphenyl)-1-piperazinethiocarboxamide] returned a melting point of 196 to 197 °C.

`COc1cc2ncnc(N3CCN(C(=O)Nc4ccc(C5CCCCC5)cc4)CC3)c2cc1OC` [Compound 26, N-(4-Cyclohexylphenyl)-4-(6,7-dimethoxy-4-quinazolinyl)-1-piperazinecarboxamide] showed a melting point of 238 to 241 °C.

`COc1cc2ncnc(N3CCN(C(=O)Nc4ccc(Cl)nc4)CC3)c2cc1OC` [Compound 272, N-(2-Chloro-5-pyridyl)-4-(6,7-dimethoxy-4-quinazolinyl)-1-piperazinecarboxamide] registered a melting point of 238 to 240 °C.

Take `COc1cc2ncnc(N3CCN(C(=O)Nc4ccc(N5CCOCC5)cc4)CC3)c2cc1OC` [Compound 117, 4-(6,7-Dimethoxy-4-quinazolinyl)-N-(4-morpholinophenyl)-1-piperazinecarboxamide]: the melting point fell in the range of 254 to 256 °C.

`COc1cc2ncnc(N3CCN(C(=O)NCc4ccccc4)CC3)c2cc1OC` [Compound 3, N-Benzyl-4-(6,7-dimethoxy-4-quinazolinyl)-1-piperazinecarboxamide] showed a melting point of 167 to 168 °C.

With `COc1cc2nc(N3CCOCC3)nc(N3CCN(C(=O)Nc4ccc(Oc5ccccc5)cc4)CC3)c2cc1OC` [Compound 393, 4-(6,7-Dimethoxy-2-morpholino-4-quinazolinyl)-N-(4-phenoxyphenyl)-1-piperazinecarboxamide], the melting point was in the range of 114 to 116 °C.

Consider `COc1cc2ncnc(N3CCN(C(=O)Nc4cccnc4)CC3)c2cc1OC` [Compound 265, 4-(6,7-Dimethoxy-4-quinazolinyl)-N-(3-pyridyl)-1-piperazinecarboxamide], for which the melting point is 208 to 209 °C.

`COc1cccc2c(N3CCN(C(=O)Nc4ccc(C(C)C)cc4)CC3)ncnc12` [Compound 326, N-(4-Isopropylphenyl)-4-(8-methoxy-4-quinazolinyl)-1-piperazinecarboxamide] yielded a melting point of 102 to 104 °C.

The compound `Cn1c(=O)n(C)c2cc3c(N4CCN(C(=O)Nc5ccc(Oc6ccccc6)cc5)CC4)ncnc3cc21` [Compound 121, 4-(1,3-Dihydro-1,3-dimethyl-2-oxo-2H-imidazo[4,5-g]quinazolin-8-yl)-N-(4-phenoxyphenyl)-1-piperazinecarboxamide] displayed a melting point of 250 to 255 °C.

`Fc1cc2ncnc(N3CCN(C(=S)NCc4ccccc4)CC3)c2cc1F` [Compound 330, N-Benzyl-4-(6,7-difluoro-4-quinazolinyl)-1-piperazinethiocarboxamide] had a melting point of 119 to 120 °C.

Compound `S=C(NCc1ccccc1)N1CCN(c2ncnc3cc4c(cc23)OCCO4)CC1` [Compound 374, N-Benzyl-4-(6,7-ethylenedioxy-4-quinazolinyl)-1-piperazinethiocarboxamide] gave a melting point of 103 to 105 °C.

In the case of `COc1ccc2ncnc(N3CCN(C(=O)Nc4ccc(Oc5ccccc5)cc4)CC3)c2c1` [Compound 307, 4-(6-Methoxy-4-quinazolinyl)-N-(4-phenoxyphenyl)-1-piperazinecarboxamide], the melting point lay within 139 to 140 °C.

`Cc1ccc2nc(C(F)(F)F)cc(N3CCN(C(=O)Nc4ccc(Oc5ccccc5)cc4)CC3)c2c1[N+](=O)[O-]` [Compound 413, 4-(6-Methyl-5-nitro-2-trifluoromethyl-4-quinolyl)-N-(4-phenoxyphenyl)-1-piperazinecarboxamide]: the melting point fell in the range of 197 to 198 °C.

In turn, `COc1cc2ncnc(N3CCN(C(=O)NCc4cccs4)CC3)c2cc1OC` [Compound 259, 4-(6,7-Dimethoxy-4-quinazolinyl)-N-(2-thienylmethyl)-1-piperazinecarboxamide] came in with a melting point of 168 to 170 °C.

`COc1cc2ncnc(N3CCN(C(=S)Nc4ccc(C(C)C)cc4)CC3)c2cc1OC` [Compound 152, 4-(6,7-Dimethoxy-4-quinazolinyl)-N-(4-isopropylphenyl)-1-piperazinethiocarboxamide] yielded a melting point of 194 to 195 °C.

The compound `COc1cc2ncnc(N3CCN(C(=O)Nc4ccc(-n5cccc5)cc4)CC3)c2cc1OC` [Compound 280, 4-(6,7-Dimethoxy-4-quinazolinyl)-N-[4-(1-pyrrolyl)phenyl]-1-piperazinecarboxamide] returned a melting point of 224 to 226 °C.

For the compound `COc1cc2ncnc(N3CCN(C(=S)Nc4ccc(C(C)=O)cc4)CC3)c2cc1OC` [Compound 242, N-(4-Acetylphenyl)-4-(6,7-dimethoxy-4-quinazolinyl)-1-piperazinethiocarboxamide], the melting point lay in the range of 256 to 257 °C.

As to `CC(C)c1ccc(NC(=O)N2CCN(c3ncnc4c(Cl)cc(Cl)cc34)CC2)cc1` [Compound 376, 4-(6,8-Dichloro-4-quinazolinyl)-N-(4-isopropylphenyl)-1-piperazinecarboxamide], the melting point lay in the range of 234 to 236 °C.

Regarding `COc1cc2ncnc(N3CCN(C(=S)NCc4ccc(C(C)(C)C)cc4)CC3)c2cc1OC` [Compound 157, N-(4-tert-Butylbenzyl)-4-(6,7-dimethoxy-4-quinazolinyl)-1-piperazinethiocarboxamide], the melting point lay within 104 to 105 °C.

Consider `COc1cc2ncnc(N3CCN(C(=O)Nc4ccc(S(C)(=O)=O)cc4)CC3)c2cc1OC` [Compound 251, 4-(6,7-Dimethoxy-4-quinazolinyl)-N-(4-mesylphenyl)-1-piperazinecarboxamide], for which the melting point was in the range of 266 to 269 °C.

In the case of `COc1cccc2c(N3CCN(C(=O)Nc4ccc(Oc5ccccc5)cc4)CC3)ncnc12` [Compound 327, 4-(8-Methoxy-4-quinazolinyl)-N-(4-phenoxyphenyl)-1-piperazinecarboxamide], the melting point is 108 to 109 °C.

As for `COc1cc2ncnc(N3CCN(C(=O)Nc4cc(C)c(C)cc4[N+](=O)[O-])CC3)c2cc1OC` [Compound 237, 4-(6,7-Dimethoxy-4-quinazolinyl)-N-(4,5-dimethyl-2-nitrophenyl)-1-piperazinecarboxamide], the melting point fell in the range of 213 to 215 °C.

As to `Cc1ccc2c(N3CCN(C(=S)NCc4cccnc4)CC3)ncnc2c1.Cl.Cl`, the melting point is 180 to 183 °C.

With `COc1cc2ncnc(N3CCN(C(=O)Nc4cc(F)ccc4F)CC3)c2cc1OC` [Compound 51, N-(2,5-Difluorophenyl)-4-(6,7-dimethoxy-4-quinazolinyl)-1-piperazinecarboxamide], the melting point lay in the range of 187 to 189 °C.

For the compound `COc1cc2ncnc(N3CCN(C(=S)NCc4ccc(C(F)(F)F)cc4)CC3)c2cc1OC` [Compound 161, 4-(6,7-Dimethoxy-4-quinazolinyl)-N-(4-trifluoromethylbenzyl)-1-piperazinethiocarboxamide], the melting point lay within 216 to 217 °C.

Compound `CCOc1cc2ncnc(N3CCN(C(=O)Nc4ccc(Oc5ccccc5)cc4)CC3)c2cc1OC` [Compound 335, 4-(7-Ethoxy-6-methoxy-4-quinazolinyl)-N-(4-phenoxyphenyl)-1-piperazinecarboxamide] displayed a melting point of 174 to 175 °C.

Regarding `CCOC(=O)c1cnc2cc(OC)c(OC)cc2c1N1CCN(C(=O)Nc2ccc(Oc3ccccc3)cc2)CC1` [Compound 408, 4-(6,7-Dimethoxy-3-ethoxycarbonyl-4-quinolyl)-N-(4-phenoxyphenyl)-1-piperazinecarboxamide], the melting point lay within 163 to 164 °C.
